Reference: the supplement of paper PMC10307832

What was measured:
Experiment in all cases: relative viability (nuclei count vs DMSO), 5 days (fraction); higher = more cells survive
[1] = compound: Nc1ccccc1NC(=O)c1ccc(CNC(=O)OCc2cccnc2)cc1 [Entinostat] + CC(=O)c1c(C)c2cnc(Nc3ccc(N4CCNCC4)cn3)nc2n(C2CCCC2)c1=O [Palbociclib] (partner 0.5 µM)
In short: (§1)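 Relative viability is defined as nuclei in treated wells over nuclei in vehicle wells. Duplicate plates were run and medians reported. Lung cancer cell lines in 1536-well plates were dosed by pin tool one day after seeding, with one drug or with a fixed anchor-drug dose plus five library-drug doses (not always all listed) in √10 steps, and nuclei were counted after 5 days.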

[2] = compound: CN1CCC(CNc2ccc3ncc(-c4cccc(OC(F)(F)F)c4)n3n2)CC1 [SGI-1776] + C[C@]1(O)C[C@@H](c2nc(-c3ccc4ccc(-c5ccccc5)nc4c3)c3c(N)nccn32)C1 [Linsitinib] (partner 1 µM)
In short: as §1

[3] = compound: CN1CCC(CNc2ccc3ncc(-c4cccc(OC(F)(F)F)c4)n3n2)CC1 [SGI-1776] + CS(=O)(=O)N1CCN(Cc2cc3nc(-c4cccc5[nH]ncc45)nc(N4CCOCC4)c3s2)CC1 [Pictilisib] (partner 1 µM)
In short: as §1

[4] = compound: Nc1ccccc1NC(=O)c1ccc(CNC(=O)OCc2cccnc2)cc1 [Entinostat] + Nc1nc2[nH]cc(CCc3ccc(C(=O)N[C@@H](CCC(=O)O)C(=O)O)cc3)c2c(=O)[nH]1 [Pemetrexed] (partner 0.2 µM)
In short: as §1

NCI-H1666
relative viability ([1]; first compound 0.02 µM): 0.672
relative viability ([1]; first compound 0.06325 µM): 0.684
relative viability ([1]; first compound 0.2 µM): 0.697
relative viability ([1]; first compound 0.6325 µM): 0.65
relative viability ([1]; first compound 2 µM): 0.565
relative viability ([2]; first compound 0.08 µM): 0.856
relative viability ([2]; first compound 0.8 µM): 0.83
relative viability ([2]; first compound 2.53 µM): 0.772
relative viability ([2]; first compound 8 µM): 0.493
relative viability ([3]; first compound 0.08 µM): 0.568
relative viability ([3]; first compound 0.8 µM): 0.403
relative viability ([3]; first compound 2.53 µM): 0.404
relative viability ([3]; first compound 8 µM): 0.313
relative viability ([4]; first compound 0.02 µM): 0.866
relative viability ([4]; first compound 0.06325 µM): 0.989
relative viability ([4]; first compound 0.2 µM): 0.913
relative viability ([4]; first compound 0.6325 µM): 0.75
relative viability ([4]; first compound 2 µM): 0.579

NCI-H460
relative viability ([1]; first compound 0.02 µM): 0.112
relative viability ([1]; first compound 0.06325 µM): 0.0634
relative viability ([1]; first compound 0.2 µM): 0.0456
relative viability ([1]; first compound 0.6325 µM): 0.0231
relative viability ([1]; first compound 2 µM): 0.0171
relative viability ([2]; first compound 0.08 µM): 0.683
relative viability ([2]; first compound 0.8 µM): 0.859
relative viability ([2]; first compound 2.53 µM): 0.785
relative viability ([2]; first compound 8 µM): 0.459
relative viability ([3]; first compound 0.08 µM): 0.376
relative viability ([3]; first compound 0.8 µM): 0.343
relative viability ([3]; first compound 2.53 µM): 0.42
relative viability ([3]; first compound 8 µM): 0.289
relative viability ([4]; first compound 0.02 µM): 0.0727
relative viability ([4]; first compound 0.06325 µM): 0.068
relative viability ([4]; first compound 0.2 µM): 0.076
relative viability ([4]; first compound 0.6325 µM): 0.0606
relative viability ([4]; first compound 2 µM): 0.041
